This test concerns the target T1, HPK1 (Homo sapiens, UniProt Q92918).
T1 construct: A HiBiT tag was introduced by CRISPR on the N terminus of HPK1 in Jurkat cells; host or cells: Jurkat cells (ATCC TIB-152), monoclonal line with CRISPR knock-in of HiBiT at the endogenous HPK1 locus
Kind of test: HPK1 Cellular HiBit Degradation Assay. Type of test: cell-based. The note with it: HiBiT HPK1 Jurkat cells, 24 hrs; for DC50: concentration at which 50% of HPK1 was remaining, read-out: DC50 Category; for Dmax: Jurkat, maximum degradation vs DMSO vehicle control, read-out: Dmax Category. Summed up:
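HPK1 levels are read by HiBiT luminescence after 24 h exposure of HiBiT-knock-in Jurkat cells to compound at 10 uM–0.1 nM final (11 points). Relative to DMSO (100%), DC50 is the concentration leaving 50% HPK1 from a variable-slope fit, and Dmax is 100 minus minimum remaining. Viability checked in-plate.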
A general note: With HiBiT, luminescence reflects the tagged protein that the partner subunit can reach.

Molecules are shown by their SMILES. Bounds are passed on as bounds.

T1 sequence (Q92918 whole entry): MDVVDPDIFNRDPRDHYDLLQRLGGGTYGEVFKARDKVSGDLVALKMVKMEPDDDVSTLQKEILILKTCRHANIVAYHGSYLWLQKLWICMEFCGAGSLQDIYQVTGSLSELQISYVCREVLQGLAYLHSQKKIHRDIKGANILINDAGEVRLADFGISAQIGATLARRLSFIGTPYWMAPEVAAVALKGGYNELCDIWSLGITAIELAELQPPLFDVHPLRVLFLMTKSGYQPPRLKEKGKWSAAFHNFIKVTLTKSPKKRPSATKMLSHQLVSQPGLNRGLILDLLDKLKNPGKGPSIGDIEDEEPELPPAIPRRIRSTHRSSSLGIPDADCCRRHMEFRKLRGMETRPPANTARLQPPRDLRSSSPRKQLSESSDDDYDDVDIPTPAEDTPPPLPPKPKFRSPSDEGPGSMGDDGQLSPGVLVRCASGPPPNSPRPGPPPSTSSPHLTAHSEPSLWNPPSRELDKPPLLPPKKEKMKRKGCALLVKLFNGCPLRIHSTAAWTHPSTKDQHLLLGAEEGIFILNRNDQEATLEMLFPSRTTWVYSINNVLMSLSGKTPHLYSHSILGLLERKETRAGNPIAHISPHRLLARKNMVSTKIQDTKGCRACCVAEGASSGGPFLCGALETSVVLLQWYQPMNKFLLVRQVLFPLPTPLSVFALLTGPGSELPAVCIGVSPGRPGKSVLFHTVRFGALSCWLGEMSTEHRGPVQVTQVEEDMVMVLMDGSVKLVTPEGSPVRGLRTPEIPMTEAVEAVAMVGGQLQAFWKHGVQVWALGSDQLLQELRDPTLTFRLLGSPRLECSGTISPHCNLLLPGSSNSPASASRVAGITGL

Turning to `CC(C)n1cnc2cc(-c3ccc4c(c3)N([C@H]3C[C@@H](N5CCCCC5)C3)C(=O)C43CCN(C(=O)C4CCN(C(=O)[C@H]5CC[C@H](Oc6ccc(C7CCC(=O)NC7=O)cn6)CC5)CC4)CC3)nc(Nc3ccccc3F)c21` (mixture of isomers) [Example 62, (3RS)-3-(6-{[(1R,4R)-4-{4-[(6-{4-[(2-fluorophenyl)amino]-3-(propan-2-yl)-3H-imidazo[4,5-c]pyridin-6-yl}-2-oxo-1-[(1S,3S)-3-(piperidin-1-yl)cyclobutyl]-1,2-dihydrospiro[indole-3,4′-piperidin]-1′-yl)carbonyl]piperidine-1-carbonyl}cyclohexyl]oxy}pyridin-3-yl)piperidine-2,6-dione], the DC50 was in the range of 100 to 500 nM and the Dmax is 50 to 70%.
Consider `CC(C)n1cnc2cc(-c3ccc4c(c3)N([C@H]3C[C@@H](N5CCCCC5)C3)C(=O)C43CCN(C(=O)C4CCN(C(=O)[C@H]5CC[C@H](Cn6cc7cc(C8CCC(=O)NC8=O)ccc7n6)CC5)CC4)CC3)nc(Nc3ccccc3F)c21` (mixture of isomers) [Example 63, (3RS)-3-(2-{[(1R,4R)-4-{4-[(6-{4-[(2-fluorophenyl)amino]-3-(propan-2-yl)-3H-imidazo[4,5-c]pyridin-6-yl}-2-oxo-1-[(1S,3S)-3-(piperidin-1-yl)cyclobutyl]-1,2-dihydrospiro[indole-3,4′-piperidin]-1′-yl)carbonyl]piperidine-1-carbonyl}cyclohexyl]methyl}-2H-indazol-5-yl)piperidine-2,6-dione], for which the DC50 was below 100 nM and the Dmax fell in the range of 50 to 70%.
For `CC(C)n1cnc2cc(-c3ccc4c(c3)N([C@H]3C[C@@H](N5CCCCC5)C3)C(=O)C43CCN(C(=O)C4CCN(C(=O)[C@H]5CC[C@H](Cn6ncc7cc(C8CCC(=O)NC8=O)ccc76)CC5)CC4)CC3)nc(Nc3ccccc3F)c21` (mixture of isomers) [Example 64, (3RS)-3-(1-{[(1R,4R)-4-{4-[(6-{4-[(2-fluorophenyl)amino]-3-(propan-2-yl)-3H-imidazo[4,5-c]pyridin-6-yl}-2-oxo-1-[(1S,3S)-3-(piperidin-1-yl)cyclobutyl]-1,2-dihydrospiro[indole-3,4′-piperidin]-1′-yl)carbonyl]piperidine-1-carbonyl}cyclohexyl]methyl}-1H-indazol-5-yl)piperidine-2,6-dione] the same measures were below 100 nM and 70 to 85%.
Take `CC(C)n1cnc2cc(-c3ccc4c(c3)N([C@H]3C[C@@H](N5CCCCC5)C3)C(=O)C43CCN(C(=O)C4CCN(C(=O)[C@H]5CCN(c6ccc(C7CCC(=O)NC7=O)cn6)C5)CC4)CC3)nc(Nc3ccccc3F)c21` (mixture of isomers) [Example 65, (3RS)-3-{6-[(3S)-3-{4-[(6-{4-[(2-fluorophenyl)amino]-3-(propan-2-yl)-3H-imidazo[4,5-c]pyridin-6-yl}-2-oxo-1-[(1S,3S)-3-(piperidin-1-yl)cyclobutyl]-1,2-dihydrospiro[indole-3,4′-piperidin]-1′-yl)carbonyl]piperidine-1-carbonyl}pyrrolidin-1-yl]pyridin-3-yl}piperidine-2,6-dione]: the DC50 lay within 100 to 500 nM and the Dmax fell in the range of 70 to 85%.
For `CC(C)n1cnc2cc(-c3ccc4c(c3)N([C@H]3C[C@@H](N5CCCCC5)C3)C(=O)C43CCN(C(=O)C4CCN(C(=O)C5CCN(c6ccc(C7CCC(=O)NC7=O)cc6)CC5)CC4)CC3)nc(Nc3ccccc3F)c21` (mixture of isomers) [Example 67, (3RS)-3-[4-(4-{4-[(6-{4-[(2-fluorophenyl)amino]-3-(propan-2-yl)-3H-imidazo[4,5-c]pyridin-6-yl}-2-oxo-1-[(1S,3S)-3-(piperidin-1-yl)cyclobutyl]-1,2-dihydrospiro[indole-3,4′-piperidin]-1′-yl)carbonyl]piperidine-1-carbonyl}piperidin-1-yl)phenyl]piperidine-2,6-dione] the same measures were below 100 nM and 70 to 85%.
For `Cc1cc(F)c(Nc2nc(-c3ccc4c(c3)N([C@H]3C[C@@H](N5CCCCC5)C3)C(=O)C43CCN(C(=O)C4CCN(C(=O)C5CCN(c6ccc(C7CCC(=O)NC7=O)cn6)CC5)CC4)CC3)cc3ncn(C(C)C)c23)cc1C(=O)NC(C)C` (mixture of isomers) [Example 72, 5-[(6-{1′-[1-(1-{5-[(3RS)-2,6-dioxopiperidin-3-yl]pyridin-2-yl}piperidine-4-carbonyl)piperidine-4-carbonyl]-2-oxo-1-[(1S,3S)-3-(piperidin-1-yl)cyclobutyl]-1,2-dihydrospiro[indole-3,4′-piperidin]-6-yl}-3-(propan-2-yl)-3H-imidazo[4,5-c]pyridin-4-yl)amino]-4-fluoro-2-methyl-N-(propan-2-yl)benzamide] the same measures were 100 to 500 nM and 70 to 85%.
For `CC(C)n1cnc2cc(-c3ccc4c(c3)N([C@H]3C[C@@H](N5CCCCC5)C3)C(=O)C43CCN(C(=O)C4CCN(C(=O)C5CCN(c6ccc(C7CCC(=O)NC7=O)cn6)CC5)CC4)CC3)nc(Nc3ccccc3F)c21` (mixture of isomers) [Example 74, (3RS)-3-[6-(4-{4-[(6-{4-[(2-fluorophenyl)amino]-3-(propan-2-yl)-3H-imidazo[4,5-c]pyridin-6-yl}-2-oxo-1-[(1S,3S)-3-(piperidin-1-yl)cyclobutyl]-1,2-dihydrospiro[indole-3,4′-piperidin]-1′-yl)carbonyl]piperidine-1-carbonyl}piperidin-1-yl)pyridin-3-yl]piperidine-2,6-dione] the same measures were below 100 nM and above 85%.
For the compound `CC(C)n1cnc2cc(-c3ccc4c(c3)N([C@H]3C[C@@H](N(C)C)C3)C(=O)C43CCN(C(=O)C4CCN(C(=O)C5CCN(c6ccc(C7CCC(=O)NC7=O)cn6)CC5)CC4)CC3)nc(Nc3ccccc3F)c21` (mixture of isomers) [Example 75, (3RS)-3-[6-(4-{4-[(6-{4-[(2-fluorophenyl)amino]-3-(propan-2-yl)-3H-imidazo[4,5-c]pyridin-6-yl}-2-oxo-1-[(1S,3S)-3-(dimethylamino)cyclobutyl]-1,2-dihydrospiro[indole-3,4′-piperidin]-1′-yl)carbonyl]piperidine-1-carbonyl}piperidin-1-yl)pyridin-3-yl]piperidine-2,6-dione], the DC50 lay within 100 to 500 nM and the Dmax is 70 to 85%.
Consider `CC(C)n1cnc2cc(-c3ccc4c(c3)N([C@H]3C[C@@H](N5CCCCC5)C3)C(=O)C43CCN(C(=O)C4CCN(C(=O)C5CCN(c6ccc(C7CCC(=O)NC7=O)cn6)CC5)CC4)CC3)nc(Oc3ccccc3F)c21` (mixture of isomers) [Example 76, (3RS)-3-(6-{4-[4-({6-[4-(2-fluorophenoxy)-3-(propan-2-yl)-3H-imidazo[4,5-c]pyridin-6-yl]-2-oxo-1-[(1S,3S)-3-(piperidin-1-yl)cyclobutyl]-1,2-dihydrospiro[indole-3,4′-piperidin]-1′-yl}carbonyl)piperidine-1-carbonyl]piperidin-1-yl}pyridin-3-yl)piperidine-2,6-dione], for which the DC50 lay in the range of 100 to 500 nM and the Dmax is above 85%.
For `CC(C)n1cnc2cc(-c3ccc4c(c3)N([C@H]3C[C@@H](N5CCCCC5)C3)C(=O)C43CCN(C(=O)C4CCN(C(=O)C5CCN(c6ccc(C7CCC(=O)NC7=O)cn6)CC5)CC4)CC3)nc(Nc3ccncc3F)c21` (mixture of isomers) [Example 77, (3RS)-3-[6-(4-{4-[(6-{4-[(3-Fluoropyridin-4-yl)amino]-3-(propan-2-yl)-3H-imidazo[4,5-c]pyridin-6-yl}-2-oxo-1-[(1S,3S)-3-(piperidin-1-yl)cyclobutyl]-1,2-dihydrospiro[indole-3,4′-piperidin]-1′-yl)carbonyl]piperidine-1-carbonyl}piperidin-1-yl)pyridin-3-yl]piperidine-2,6-dione] the same measures were below 100 nM and 70 to 85%.
In the same order, the values of `CC(C)n1cnc2cc(-c3ccc4c(c3)N([C@H]3C[C@@H](N5CCCCC5)C3)C(=O)C43CCN(C(=O)C4CCN(C(=O)C5CCN(c6ccc(C7CCC(=O)NC7=O)cn6)CC5)CC4)CC3)nc(NC3CCOCC3)c21` (mixture of isomers) [Example 78, (3RS)-3-[6-(4-{4-[(6-{4-[(oxan-4-yl)amino]-3-(propan-2-yl)-3H-imidazo[4,5-c]pyridin-6-yl}-2-oxo-1-[(1S,3S)-3-(piperidin-1-yl)cyclobutyl]-1,2-dihydrospiro[indole-3,4′-piperidin]-1′-yl)carbonyl]piperidine-1-carbonyl}piperidin-1-yl)pyridin-3-yl]piperidine-2,6-dione] are below 100 nM and 50 to 70%.
For `CC(C)n1cnc2cc(-c3ccc4c(c3)N([C@H]3C[C@@H](N5CCCCC5)C3)C(=O)C43CCN(C(=O)C4CCN(C(=O)C5CCN(c6ccc(C7CCC(=O)NC7=O)nc6)CC5)CC4)CC3)nc(Nc3ccncc3F)c21` (mixture of isomers) [Example 82, (3RS)-3-[5-(4-{4-[(6-{4-[(3-fluoropyridin-4-yl)amino]-3-(propan-2-yl)-3H-imidazo[4,5-c]pyridin-6-yl}-2-oxo-1-[(1S,3S)-3-(piperidin-1-yl)cyclobutyl]-1,2-dihydrospiro[indole-3,4′-piperidin]-1′-yl)carbonyl]piperidine-1-carbonyl}piperidin-1-yl)pyridin-2-yl]piperidine-2,6-dione] the same measures were below 100 nM and 70 to 85%.
As to `CC(C)n1cnc2cc(-c3ccc4c(c3)N([C@H]3C[C@@H](N5CCCCC5)C3)C(=O)C43CCN(C(=O)C4CCN(C(=O)C5CCN(c6ccc(C(=O)NC7CCC(=O)NC7=O)nc6)CC5)CC4)CC3)nc(Nc3ccccc3F)c21` (mixture of isomers) [Example 83, N-[(3RS)-2,6-dioxopiperidin-3-yl]-5-(4-{4-[(6-{4-[(2-fluorophenyl)amino]-3-(propan-2-yl)-3H-imidazo[4,5-c]pyridin-6-yl}-2-oxo-1-[(1S,3S)-3-(piperidin-1-yl)cyclobutyl]-1,2-dihydrospiro[indole-3,4′-piperidin]-1′-yl)carbonyl]piperidine-1-carbonyl}piperidin-1-yl)pyridine-2-carboxamide], the DC50 was in the range of 100 to 500 nM and the maximal degradation (Dmax) lay in the range of 50 to 70%.

Broadly, the DC50 is the concentration giving 50% degradation. By Dmax is commonly meant the largest share of the target that was removed.

The values above are taken from patent US12091426B2, “Bifunctional degraders of hematopoietic progenitor kinase and therapeutic uses thereof” (Nurix Therapeutics, Inc., priority 2021, dated 2024).
